Blank lines part the entries; values can stand above or below the compound they belong to.
Columns and labels:
IgG = IgG binding experiment, free IgG measured after overnight binding (FIG. 10); parameters: species or system human; conditions: PBS and water conditions
Description: Human IgG1 or albumin shall be used as the biomolecule of interest.
In separate trials, the experiment was done in presence of water and PBS buffer solutions. The percentage of unbound IgG and pyridinium bound IgG were determined by measuring the free IgG (protein) after the protein was allowed to bind overnight with pyridinium constructs.

rabbit IgG = assay: ELISA with pyridinium-biotin construct on IgG coated, BSA blocked wells vs BSA only wells (FIG. 20); assay type: binding; conditions: PBS buffer; femtomole range of construct; avidin-HRP detection
Source text: Another variation of ELISA assay is one in which the plate wells are first coated with rabbit IgG. After a wash with PBS buffer, the IgG coated wells are blocked with bovine serum albumin (BSA) to saturate the remaining surface of the wells in order to lower background noise. A set of control wells are coated and blocked with BSA only as described above. The IgG coated and BSA blocked wells are then reacted with pyridinium-biotin construct in PBS buffer. Increasing amounts of with pyridinium-biotin construct in femtomole range are added in different wells. Those wells are washed with PBS buffer and reacted with constant amount of avidin-Horseradish peroxidase (HRP) in PBS. The colorimetric product of the reaction is then detected by an ELISA plate reader.

Immunoglobulin G (IgG) = assay: Microscale thermophoresis binding affinity with IgG (Monolith NT.115); conditions: construct 500 nM, IgG 12.5 μM-350 pM
Description: (§1) Binding affinities of pyridinium constructs with macromolecules were measure using Monolith NT.115 system developed by Nano Temper technology (https://nanotempertech.com/monolith/). The Monolith NT.115 equipment measures the strength of the interactions between a fluorescently labeled or intrinsically fluorescent sample and a binding partner such as a macromolecule are measured while a temperature gradient is applied over time. The molecular mobility of a fluorescently labeled construct in a thermo gradient when alone and in presence of increasing concentrations of binding partner is compared. From this, binding affinity (Kd) is calculated from a fitted curve that plots normalized fluorescence against concentration of ligand.
The experiment was conducted to measure the binding affinity of the pyridinium construct containing fluorescein with increasing concentrations of Immunoglobulin G (IgG) in presence of PBS buffer and saline. The results of the binding affinity curve at increasing concentrations of IgG in two different solutions (PBS & Saline) are shown in FIG. 16.
(§2) The IgG protein was tested at a concentration range of 12.5 μM-350 pM and the pyridinium-fluorescein construct was at a concentration of 500 nM. Likewise, for experiments involving HSA, the HSA protein was at a concentration range of 125 μM-3.5 nM and the pyridinium-fluorescein construct was at a concentration of 500 nM.

[1] = target: human serum albumin (HSA) (Homo sapiens, UniProt P02768); assay: Microscale thermophoresis binding affinity with HSA (Monolith NT.115); conditions: construct 500 nM, HSA 125 μM-3.5 nM, compared with IgG
Description: as §1, §2
The experiment was repeated with human serum albumin (HSA) instead of IgG under similar conditions. The results of the binding affinity curve at increasing concentrations of HSA in two different solutions (PBS & Saline) are shown in FIG. 17.

human serum albumin (HSA), sequence (P02768 25-609): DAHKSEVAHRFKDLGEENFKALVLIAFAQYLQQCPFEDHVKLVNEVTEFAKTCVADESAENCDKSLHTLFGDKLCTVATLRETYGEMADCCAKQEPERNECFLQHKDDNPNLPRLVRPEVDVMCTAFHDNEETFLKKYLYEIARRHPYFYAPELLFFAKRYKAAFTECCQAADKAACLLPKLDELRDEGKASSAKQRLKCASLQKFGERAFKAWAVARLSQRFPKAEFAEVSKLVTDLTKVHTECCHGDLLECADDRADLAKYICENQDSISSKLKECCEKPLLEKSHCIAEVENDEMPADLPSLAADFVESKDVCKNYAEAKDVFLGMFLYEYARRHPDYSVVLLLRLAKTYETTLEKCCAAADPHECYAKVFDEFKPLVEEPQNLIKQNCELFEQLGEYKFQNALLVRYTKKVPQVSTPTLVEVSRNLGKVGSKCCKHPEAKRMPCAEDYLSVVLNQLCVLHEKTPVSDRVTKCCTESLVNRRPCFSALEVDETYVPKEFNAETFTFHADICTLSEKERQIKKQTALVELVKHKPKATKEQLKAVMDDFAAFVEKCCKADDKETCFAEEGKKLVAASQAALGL

SMILES: CCCCCCCCCCCCCCCC[N+](C)(C)C.[Br-] [CTAB, Cetyl trimethylammonium bromide]
binding to IgG (IgG): did not bind to the IgG protein

SMILES: O=C(CCCCC1SCC2NC(=O)NC21)NCC[n+]1ccccc1 (stereo not drawn) [pyridinium constructs, 1-(2-(5-(2-oxohexahydro-1H-thieno[3,4-d]imidazol-4-yl)pentanamido)ethyl)pyridinium]
binding affinity in ELISA, IgG vs BSA dilution curves (rabbit IgG): strong binding affinity of IgG even at lower concentrations when compared with that of BSA

Kd (Immunoglobulin G (IgG); in PBS): 0.02 µM
Kd (Immunoglobulin G (IgG); in saline): 1.5 µM
binding affinity to HSA ([1]; PBS solution): much lower than that of IgG
binding affinity to HSA ([1]; saline solution): comparable to that of IgG
SMILES: O=C(NCC[n+]1ccccc1)c1ccc2c(c1)C1(OC2=O)c2ccc(O)cc2Oc2cc(O)ccc21 [pyridinium-fluorescein construct, 1-(2-(3′,6′-dihydroxy-3-oxo-3H-spiro[isobenzofuran-1,9′-xanthene]-6-ylcarboxamido)ethyl)pyridinium]
